According to patent US9617261B2, “Substituted pyridinone compounds as MEK inhibitors” (The Asan Foundation, priority 2013, dated 2017):

Assays:
[1] = target: Mek1 (Homo sapiens (Human), UniProt Q02750); experiment: Mek1 kinase assay (LANCE); assay type: biochemical; conditions: Mek1 0.5 nM, 50 μM ATP, 90 min at 23° C.; read-out: IC50 Enzymatic assay
Description: The LANCE Ultra assay kit was purchased from PerkinElmer. The ULight™-MBP peptide, Europium labeled Antibody and LANCE Detection buffer were purchased from PerkinElmer. The APT and dimethylsulfoxide were purchased from Sigma-Aldrich. The 5× Kinase buffer were purchased from Invitrogen.
A Mek1 kinase assay (LANCE, PerkinElmer) was developed for supporting compound profiling and lead optimization. […] Then the phosphorylated Erk1 was able to phosphorylate ULight™-MBP peptide (PerkinElmer). The phosphorylated peptide was detected by Europium-anti-phospho-MBP (PerkinElmer). […] After quenching the reaction with […], 2 nM Europium-anti-phospho-MBP was added to the reaction mixture and incubated for 60 min, followed by a detection using EnVision Multilabel Plate Reader (PerkinElmer). The IC50 values were derived through a curve fitting using GraphPad Prism5.

[2] = system: COLO205 cell line (Colon cancer); experiment: Cell viability assay (CellTiter-Glo), COLO205; conditions: Homo sapiens, COLO 205; COLO205, 72 hours; read-out: IC50 Cell-based assay (COLO205)
Experimental: (§1) The CellTiter-Glo® assay was purchased from Promega. All the reagents and plates for cell culture were purchased Invitrogen Life Technology and Nunc, respectively.
(§2) To investigate whether a compound is able to inhibit the activity of MEK in cells, a mechanism-based assay using COLO205 cell line (Colon cancer) and M14 cell line (Melanoma) were developed. COLO205 cells and M14 cells were cultured in a tissue culture flask to 80% confluence in RPMI1640 plus 10% fetal bovine serum. Cells were collected and plated onto 96 well culture plates at 2×10^2 cells/well. Plates were incubated overnight at 37° C. in a 5% CO2 incubator to allow cells to adhere. Various concentrations of MEK inhibitors were added to the plates and incubated at 37° C. for 72 hours. After 72 hours, 20 μl of CellTiter-Glo® reagent was added to each well. Mix by orbital shaking for 2 min, then incubates at room temperature for 15 min. Cell lysate were transferred into a 96 well white plate (Thermo). Plates were read out by EnVision Multilabel Plate Reader. The data were analyzed using GraphPad Prism5.

[3] = system: M14 cell line (Melanoma); experiment: Cell viability assay (CellTiter-Glo), M14; conditions: Homo sapiens; M14, 72 hours; read-out: IC50 Cell-based assay (M14)
Experimental: as §1, §2

[4] = Example 3 toxicity study by oral administration for 8 days; assay type: in vivo, Sprague-Dawley rats; conditions: for Body weight: escalating 5-320 mg/kg over 8 days
Experimental: To evaluate the potential toxicity, test article, Example 3, was administered orally for 8 days to Sprague-Dawley rats.
Male and female Sprague-Dawley rats, 6 weeks of age at onset of the study, were assigned to 2 experimental groups as follow: (1) 2 male rats treated 5, 5, 10, 20, 40, 80, 160, 320 mg/kg each day with doses escalating for 8 days (2) 2 female rats treated 5, 5, 10, 20, 40, 80, 160, 320 mg/kg each day with doses escalating for 8 days. Each article was in vehicle (Captisol).
Body weight was measured on a daily basis to determine toxicity. All groups were sacrificed at 9th day.

Chain of Mek1 (Q02750 whole entry, species assumed): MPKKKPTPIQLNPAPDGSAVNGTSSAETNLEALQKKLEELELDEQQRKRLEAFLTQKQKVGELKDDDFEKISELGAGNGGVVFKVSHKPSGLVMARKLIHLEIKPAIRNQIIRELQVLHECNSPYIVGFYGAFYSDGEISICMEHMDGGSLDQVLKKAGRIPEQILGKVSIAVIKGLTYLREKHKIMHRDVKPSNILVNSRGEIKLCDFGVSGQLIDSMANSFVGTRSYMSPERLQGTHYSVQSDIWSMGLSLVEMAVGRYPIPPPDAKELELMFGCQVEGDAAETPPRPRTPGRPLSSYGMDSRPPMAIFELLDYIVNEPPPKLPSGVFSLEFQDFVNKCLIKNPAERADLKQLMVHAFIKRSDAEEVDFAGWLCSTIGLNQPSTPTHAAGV

| Compound | IC50 [1] [nM] | IC50 [2] [nM] | IC50 [3] [nM] | Body weight ([4]; female rats) | Mortality ([4]; male and female rats, escalating 5, 5, 10, 20, 40, 80, 160, 320 mg/kg over 8 days) | Body weight ([4]; male rats) |
| --- | --- | --- | --- | --- | --- | --- |
| Cn1c(Nc2ccc(I)cc2F)c(C(=O)NOCCO)c2ncccc2c1=O [Example 1, 7-(2-fluoro-4-iodophenylamino)-N-(2-hydroxyethoxy)-6-methyl-5-oxo-5,6-dihydro-1,6-naphthyridine-8-carboxamide] | < 1000 | < 500 | < 500 |  |  |  |
| Cn1c(Nc2ccc(I)cc2F)c(-c2nnc(N)o2)c2ncccc2c1=O [Example 2, 8-(5-amino-1,3,4-oxadiazol-2-yl)-7-(2-fluoro-4-iodophenylamino)-6-methyl-1,6-naphthyridin-5(6H)-one] | < 10000 | < 50000 | < 50000 |  |  |  |
| Cn1c(Nc2ccc(I)cc2F)c(C(=O)NOCCO)c2c(c1=O)CCC2 [Example 3, 3-(2-fluoro-4-iodophenylamino)-N-(2-hydroxyethoxy)-2-methyl-1-oxo-2,5,6,7-tetrahydro-1H-cyclopenta[c]pyridine-4-carboxamide] | < 500 | < 5 | < 10 | decreased after 6 days | No mortality was observed | decreased at day 6 and day 8 |
| Cn1c(Nc2ccc(I)cc2F)c(C(N)=O)c2c(c1=O)CCC2 [Example 4, 3-(2-fluoro-4-iodophenylamino)-2-methyl-1-oxo-2,5,6,7-tetrahydro-1H-cyclopenta[c]pyridine-4-carboxamide] | < 5000 | < 50 | < 500 |  |  |  |
| C[C@H](O)CONC(=O)c1c2c(c(=O)n(C)c1Nc1ccc(I)cc1F)CCC2 [Example 5, (S)-3-(2-fluoro-4-iodophenylamino)-N-(2-hydroxypropoxy)-2-methyl-1-oxo-2,5,6,7-tetrahydro-1H-cyclopenta[c]pyridine-4-carboxamide] | < 500 | < 5 | < 50 |  |  |  |
| C[C@@H](O)CONC(=O)c1c2c(c(=O)n(C)c1Nc1ccc(I)cc1F)CCC2 [Example 6, (R)-3-(2-fluoro-4-iodophenylamino)-N-(2-hydroxypropoxy)-2-methyl-1-oxo-2,5,6,7-tetrahydro-1H-cyclopenta[c]pyridine-4-carboxamide] | < 1000 | < 10 | < 100 |  |  |  |
| Cn1c(Nc2ccc(I)cc2F)c(C(=O)NOCC(C)(C)O)c2c(c1=O)CCC2 [Example 7, 3-(2-fluoro-4-iodophenylamino)-N-(2-hydroxy-2-methylpropoxy)-2-methyl-1-oxo-2,5,6,7-tetrahydro-1H-cyclopenta[c]pyridine-4-carboxamide] | < 5000 | < 5 | < 500 |  |  |  |
| Cn1c(Nc2ccc(I)cc2F)c(C(=O)NOCC(O)CO)c2c(c1=O)CCC2 (centres unmarked) [Example 8, N-(2,3-dihydroxypropoxy)-3-(2-fluoro-4-iodophenylamino)-2-methyl-1-oxo-2,5,6,7-tetrahydro-1H-cyclopenta[c]pyridine-4-carboxamide] | < 500 | < 5 | < 50 |  |  |  |
| Cn1c(Nc2ccc(I)cc2F)c(-c2nnc(N)o2)c2c(c1=O)CCC2 [Example 9, 4-(5-amino-1,3,4-oxadiazol-2-yl)-3-(2-fluoro-4-iodophenylamino)-2-methyl-2,5,6,7-tetrahydro-1H-cyclopenta[c]pyridin-1-one] | < 5000 | < 50 | < 1000 |  |  |  |
| Cn1c(Nc2ccc(I)cc2F)c(C(=O)NOCCO)c2c(c1=O)CC(C)(C)C2 [Example 10, 3-(2-fluoro-4-iodophenylamino)-N-(2-hydroxyethoxy)-2,6,6-trimethyl-1-oxo-2,5,6,7-tetrahydro-1H-cyclopenta[c]pyridine-4-carboxamide] |  | < 50 | < 100 |  |  |  |
| Cn1c(Nc2ccc(I)cc2Cl)c(C(=O)NOCCO)c2c(c1=O)CCC2 [Example 11, 3-(2-chloro-4-iodophenylamino)-N-(2-hydroxyethoxy)-2-methyl-1-oxo-2,5,6,7-tetra hydro-1H-cyclopenta[c]pyridine-4-carboxamide] | < 500 | < 5 | < 50 |  |  |  |
